Laboratory results: ChEMBL document CHEMBL4385649, “Cyclic heptapeptides from the soil-derived fungus Clonostachys rosea” (Bioorg Med Chem, 2019)
Active and inactive are the calls of the source. The calls are words filed in the database; no cut-off is given here.

Legend:
Format in all cases: functional, cell-based
A2780 [1] = experiment: Cytotoxicity against human A2780 cells assessed as reduction in cell viability at 10 uM by MTT assay
L5178Y [2] = experiment: Cytotoxicity against mouse L5178Y cells assessed as reduction in cell viability at 10 uM by MTT assay
A2780 [3] = experiment: Cytotoxicity against human A2780 cells assessed as reduction in cell viability by MTT assay
L5178Y [4] = experiment: Cytotoxicity against mouse L5178Y cells assessed as reduction in cell viability by MTT assay

SMILES	Activity (A2780 [1])	Activity (L5178Y [2])	IC50 (A2780 [3])	IC50 (L5178Y [4])
CCC/C=C/CCC(=O)[C@]1(O)C(=O)N[C@@H](C)[C@@H]1O	inactive	inactive		
CC[C@H](C)[C@H]1NC(=O)[C@@H](CC(C)C)NC(=O)CNC(=O)CCNC(=O)[C@@H](Cc2c[nH]c3ccccc23)NC(=O)[C@H](C(C)C)NC(=O)[C@@H]([C@@H](C)CC)NC1=O	inactive	inactive		
C[C@@H](O)[C@@]12SS[C@]3(C(=O)N1C)[C@@H](O)C1(C45c6ccccc6N[C@@H]4N4C(=O)[C@]6([C@@H](C)O)SS[C@]4(C(=O)N6C)[C@H]5O)c4ccccc4N[C@@H]1N3C2=O (stereo not given in full)			3.5 µM	0.1 µM
CC(C)C[C@H]1NC(=O)CNC(=O)CCNC(=O)[C@@H](Cc2c[nH]c3ccccc23)NC(=O)[C@H](C(C)C)NC(=O)[C@H](C(C)C)NC(=O)[C@H](C(C)C)NC1=O	inactive	inactive		
CS[C@@]1(Cc2c[nH]c3ccccc23)NC(=O)[C@@](SC)(C(C)O)NC1=O (stereo not given in full)	inactive	inactive		
CC[C@H](C)[C@H]1NC(=O)[C@@H](CC(C)C)NC(=O)CNC(=O)CCNC(=O)[C@@H](Cc2c[nH]c3ccccc23)NC(=O)[C@H](C(C)C)NC(=O)[C@H](C(C)C)NC1=O				4.1 µM
C/C=C/C=C\[C@@H](O)[C@H]1CCC(=O)O1	inactive	inactive		
O=C1OC(O)C=C1O (stereo not given)	inactive	inactive		
